Our source for the MIC values is patent US20200061047A1, “NEW USE OF RIFAMYCIN-QUINOLIZIDONE DUAL-ACTION MOLECULE” (TenNor Therapeutics Limited, priority 2017, published 2020).

The structures appear in SMILES notation. ≈ marks a conversion by molar mass, not a printed value. Read-outs that look alike come from different tables or passages of the source.

Type in all cases: cell-based
Assay [1] relates to Bacteroides bifidum ATCC 1569. Briefly: MIC, agar dilution drug sensitivity test. To be noted: ATCC1569, Table 1. Background: In agar dilution the substance is mixed into plates at graded concentrations.
The test system of assay [2] is Eggerthella lenta ATCC 43055. Briefly: MIC, agar dilution drug sensitivity test. To be noted: ATCC43055, Table 1.
Assay [3] has as its system Actinomyces naeslundii JMI 534283. Briefly: MIC, agar dilution drug sensitivity test. To be noted: JMI534283, Aerobic.
The test system of assay [4] is Corynebacterium urealyticum JMI 2015_30. Briefly: MIC, agar dilution drug sensitivity test. Particulars: Aerobic.
The subject of assay [5] is Serratia marcescens ATCC 43862. Briefly: MIC, agar dilution drug sensitivity test. To be noted: Serratia marcescens, ATCC43862, Serratia marcescens ATCC 43862, read-out: MIC.
In assay [6] the test system is Proteus vulgaris ATCC 1331. Briefly: MIC, agar dilution drug sensitivity test. Particulars: Proteus vulgaris, ATCC1331, Proteus vulgaris ATCC 1331, read-out: MIC.
In assay [7] the test system is Enterobacter aerogenes ATCC 13048. Briefly: MIC, agar dilution drug sensitivity test. To be noted: Klebsiella aerogenes, ATCC13048, Enterobacter aerogenes ATCC 13048, read-out: MIC.
In assay [8] the test system is Haemophilus influenzae ATCC 49247. Briefly: MIC, microscale broth dilution drug sensitivity test. On the procedure: (§1) In this embodiment, compound I-rifamycin-quinolizidone dual-action molecule is used in a drug sensitivity test on pathogenic bacteria associated with hepatic encephalopathy, the pathogenic bacteria including the above ammonia-producing bacteria. Except that Haemophilus is tested using the microscale broth dilution method, all the other bacteria are tested using the agar dilution method consistent with that in the Guideline of the Clinical and Laboratory Standards Institute (CLSI; 1-3). All the other drug susceptibility tests are performed under anaerobic conditions except that some selective isolates are tested under both aerobic and anaerobic conditions. Control compounds include metronidazole, rifampicin, clindamycin (under anaerobic conditions) and ciprofloxacin (under aerobic and anaerobic conditions). The tested clinical isolates may be reference strains obtained from American Type Culture Collection, ATCC, Manassas, Va. After being received, the strains are respectively inoculated on appropriate agar plates and placed under optimized conditions for growth. The growing strains are cloned in the broth containing cryoprotectant to prepare bacterial suspensions, and the bacterial suspensions are subpackaged and then stored in freezing at −80° C. Before test, the frozen bacteria are inoculated into appropriate agar dishes and cultured for growth. Anaerobic bacteria grow for 48 hours at 35° C. in a Bactron II oxygen-free cabinet (Shel Lab, Cornelius, Oreg.) before test. Haemophilus Test Medium (HTM, Teknova, Hollister, Calif.; Art. No.: 895120) is used to perform drug sensitivity test on Hemophilus using the microscale broth dilution method under aerobic and anaerobic conditions. Preparation and storage of all the above broths are performed in accordance with CLSI (1-3).
In general terms: In broth dilution the organism is exposed to a series of concentrations in liquid medium.

The test system of assay [9] is Haemophilus parainfluenzae ATCC 49247. The assay is described as above. To be noted: ATCC49247; Haemophilus parainfluenzae ATCC 49247; Aerobic; read-out: MIC. On the procedure:
as §1

Assay [10] has as its system Staphylococcus saprophyticus JMI 2016_703. Briefly: MIC, agar dilution drug sensitivity test. Particulars: Aerobic.
In assay [11] the test system is Streptococcus salivarius ATCC 25975. Briefly: MIC, agar dilution drug sensitivity test. To be noted: Streptococcus salivarius, ATCC25975, Streptococcus salivarius ATCC 25975, read-out: MIC.
The subject of assay [12] is Streptococcus pneumoniae ATCC 49619. Briefly: MIC, agar dilution drug sensitivity test. To be noted: read-out: MIC.
The test system of assay [13] is Clostridium difficile ATCC 700057. Briefly: MIC, agar dilution drug sensitivity test. Particulars: Clostridioides difficile, ATCC700057.
Assay [14] has as its system Clostridium perfringens ATCC 13124. Briefly: microbe, parasite or virus in culture. To be noted: ATCC13124.
Where [15] appears, read: ATCC49247, Haemophilus influenzae ATCC 49247, Aerobic.
The mark [16] stands for this setting: ATCC49247, Haemophilus influenzae ATCC 49247, Anaerobic.
Where [17] appears, read: ATCC49619, Streptococcus pneumoniae ATCC 49619, Aerobic.
Where [18] appears, read: ATCC49619, Streptococcus pneumoniae ATCC 49619, Anaerobic.

In the case of `O=C(O)c1cn(C2CC2)c2cc(N3CCNCC3)c(F)cc2c1=O` [Ciprofloxacin, ciprofloxacin], the MIC was 2 µg/mL (≈ 6.04 µM) in assay [1]; 1 µg/mL (≈ 3.02 µM) in assay [2]; 2 µg/mL (≈ 6.04 µM) in assay [3]; over 16 µg/mL in [4]; 0.12 µg/mL (≈ 0.362 µM) in [5] (Aerobic); 0.25 µg/mL (≈ 0.754 µM) in assay [5] (Anaerobic). Further, the MIC in assay [6] (Aerobic) was 0.03 µg/mL (≈ 0.0905 µM); in assay [6] (Anaerobic), 0.03 µg/mL (≈ 0.0905 µM); in assay [7] (Aerobic), 0.03 µg/mL (≈ 0.0905 µM); in assay [7] (Anaerobic) it was 2 µg/mL (≈ 6.04 µM); in [8] (setting [15]), at most 0.12 µg/mL; in assay [8] (setting [16]), at most 0.12 µg/mL. For the same molecule, the MIC was at most 0.12 µg/mL in assay [9]; 1 µg/mL (≈ 3.02 µM) in assay [10]; 1 µg/mL (≈ 3.02 µM) in assay [11] (Aerobic); 2 µg/mL (≈ 6.04 µM) in [11] (Anaerobic); 1 µg/mL (≈ 3.02 µM) in [12] (setting [17]); 2 µg/mL (≈ 6.04 µM) in [12] (setting [18]).

Consider `CO[C@H]1/C=C/O[C@@]2(C)Oc3c(C)c(O)c4c(O)c(c(/C=N/N5CCC(N(C)C6([C@@H]7CCN(c8c(F)cn9c(=O)c(C(=O)O)cc(C%10CC%10)c9c8C)C7)CC6)CC5)c(O)c4c3C2=O)NC(=O)/C(C)=C\C=C\[C@H](C)[C@H](O)[C@@H](C)[C@@H](O)[C@@H](C)[C@H](OC(C)=O)[C@@H]1C` [Compound I, (R)-3-[(4-{1-[1-(3-carboxy-1-cyclopropyl-7-fluoro-9-methyl-4-oxo-4H-quinolizine-8-yl)-pyrrolidin-3-yl-cyclopropyl]-methylamino}-piperidin-1-ylimino)-methylene]-rifamycin SV], for which the MIC came out at 16 µg/mL (≈ 13.3 µM) in assay [1]; 0.004 µg/mL (≈ 0.00332 µM) in [13]; 0.03 µg/mL (≈ 0.0249 µM) in assay [14]; 0.06 µg/mL (≈ 0.0498 µM) in assay [2]; 0.03 µg/mL (≈ 0.0249 µM) in [3]; 0.03 µg/mL (≈ 0.0249 µM) in assay [4]. The MIC is 4 µg/mL (≈ 3.32 µM) in [5] (Aerobic); over 64 µg/mL in assay [5] (Anaerobic); 0.5 µg/mL (≈ 0.415 µM) in assay [6] (Aerobic); over 64 µg/mL in assay [6] (Anaerobic); 1 µg/mL (≈ 0.83 µM) in assay [7] (Aerobic); over 64 µg/mL in assay [7] (Anaerobic). Besides, the MIC was 0.12 µg/mL (≈ 0.0996 µM) in [8] (setting [15]); 0.12 µg/mL (≈ 0.0996 µM) in assay [8] (setting [16]); 0.25 µg/mL (≈ 0.207 µM) in [9]; 0.5 µg/mL (≈ 0.415 µM) in [10]; 0.5 µg/mL (≈ 0.415 µM) in assay [11] (Aerobic); over 64 µg/mL in assay [11] (Anaerobic). The MIC in [12] (setting [17]) and in [12] (setting [18]) was 0.06 µg/mL (≈ 0.0498 µM) in each case.
